# Source: US10265403B2, “Cyclic peptide” (priority 2013, dated 2019)
# Where no end group is shown, it is not given here.
# Key:
# [1] = tested on: Human dermal fibroblasts; experiment: Cell adhesion, proliferation and viability on coated substrates (PrestoBlue, Vybrant MTT, CyQUANT); format: cell-based; conditions: serum-free media, days 1, 4 and 8, 50 μL peptide 100 μM or protein 500 μg/mL
# Procedure: Human dermal fibroblasts (Invitrogen, UK) were maintained in Medium 106 supplemented with low serum growth supplement (2% v/v) and antibiotics (10 μg/mL gentamicin; 0.25 μg/mL amphotericin B) in […] culture flasks. The cells were incubated at 37° C., 5% CO2 and 95% air humidity. At 70-80% confluency cells were washed with PBS to remove the unattached cells and then adhered cells were trypsinised (trypsin/EDTA 0.025:0.01%) followed by trypsin neutraliser (all from Invitrogen, UK). The harvested cells (of passages 3 to 5) were seeded for subsequent cellular analysis.
# Cells were seeded at a density of 4×10^3 in serum-free media for cell viability and proliferation assays on substrates (sterile 96 well plates) coated with 50 μL of peptide (100 μM) or protein (500 μg/mL). For cytoskeletal visualisation Nunc LabTek chambered cover glass slides were used as substrates.
# Cell proliferation rates and viability were determined by PrestoBlue®, Vybrant® MTT and CyQUANT® assays on day 1, 4 and 8 (all from Life Technologies, UK).
# PrestoBlue® reagent is supplied as a 10× solution and added to each well by diluting (1×) in the serum-free culture medium. The cells were incubated for 30 minutes at 37° C. in 200 μL of the reagent. The fluorescence of each well was measured with a microplate reader (BMG Labtech, Germany), with 544 nm excitation and 590 nm emission filters. Standard calibration curves were generated by plotting measured fluorescence values versus cell numbers. […]
# Vybrant® MTT assay: For the colourimetric 3-(4, 5-dimethylthiazole-2-yl)-2, 5-diphenyl tetrazolium bromide (MTT) cell proliferation assay, the cell medium was removed from each well at the set time points and washed with PBS followed by the addition of MTT solution (10 μL, 5 mg/mL in PBS) and serum-free fresh media (100 μL). […] The absorbance intensity was measured by a microplate reader at 540 nm with a reference wavelength at 640 nm. Standard calibration curves were generated by plotting measured absorbance values versus cell numbers. […]
# [2] = tested on: Human dermal fibroblasts; experiment: Impedance measurements (xCELLigence) of cells on coated electrodes; format: cell-based; conditions: serum-depleted medium
# Procedure: Comparative impedance measurements using cell-electrode interfaces, which allow evaluating changes in effective impedance (resistance) to applied alternating current, provided further support for different cell proliferation patterns that were measured continuously in real time. Typically, cell attachments to electrode surfaces give impedance increases, whereas changes in cell morphology (cell rounding-up and detachment) cause impedance drops. Resistance traces that can correspond to different events including changes in cellular morphology, patterning and growth rates were recorded as a function of time, with cells seeded in a serum-depleted medium to avoid interferences by serum, which can modulate same signaling pathways for cell adhesion.
# Impedance measurements were performed using an xCELLigence system according to the manufacturer's protocols (Roche, UK; ACEA Biosciences, USA). Each electrode array comprises 16 wells, each of which was first coated with assembled SaNet and protein solutions and background measurements were carried out prior to cell seeding. […] The electrical impedance of each well was automatically recorded every 5 min for the first 24 hours and then every 30 min till the end, and were normalised and expressed using the proprietary software as normalised cell index. Bacterial adhesions were measured every 5 min for over 15 hours. […]
# [3] = tested on: E. coli; experiment: Bacterial adhesion / biofilm formation on coated substrates (Live/Dead stain, PrestoBlue); format: cell-based; conditions: 16-hour incubations; E. coli and B. subtilis (FIGS. 12b, 13b, 13c, 14)
# Procedure: Bacterial inocula (E. coli and B. subtilis) were prepared in Mueller Hinton broth at A600 of 0.6, then diluted to 1:100 in the pre-warmed medium, and 50 μL of this dilution was added to each well of the coated Nunc LabTek chambered cover glass slides. Formed biofilms were analysed after 16-hour incubations using a Live/Dead BacLight bacterial viability stain kit (Molecular Probes, UK), and were visualised by a confocal laser scanning microscope (CLSM) (FV-1000, Olympus). Bacterial viability was quantitatively probed by using PrestoBlue® reagent, as used for the cell viability and proliferation assay. E. coli was seeded at the same density as above in sterile bare and coated 96-well plates. After 16 hours incubation at 37° C. (or 30° C. for B. subtilis), the biofilm formed on each substrate was carefully washed with 10 mM Tris-HCl buffer, pH 7, to remove bacteria remaining in suspension. Two hundred microliters of PrestoBlue® reagent diluted in Mueller Hinton broth were added to each well and incubated for 30 minutes at 37° C. The fluorescence of each well was measured using a microplate reader with 544 nm excitation and 590 nm emission filters.
# FIG. 13b and FIG. 13c are fluorescence micrographs and total viable cell counts respectively determined by PrestoBlue® of E. coli after 16-hour incubations on different substrates. […]
# [4] = tested on: P. aeroginosa (ATCC 27853); format: cell-based, P. aeruginosa; conditions: ATCC 27853, 24 h
# Procedure: (§1) Minimum inhibitory concentrations (MIC) were determined by broth microdilution on P. aeruginosa ATCC 27853, E. coli K12, S. aureus ATCC 25723, M. luteus NCIMB 13267 and B. subtilis ATCC 6633 according to the Clinical and Laboratory Standards Institute. Typically, 100 μl of 0.5-1×10^6 CFU per ml of each bacterium in Mueller Hinton broth was incubated in 96 well plates with […] of serial two-fold dilutions of the peptides (final concentrations, 100-0 mM) at 37° C. (or 30° C. for B. subtilis and M. luteus) on a 3D orbital shaker. The absorbance was measured after peptide addition at 600 nm using a Victor 2 plate reader (Perkin Elmer). Minimum inhibitory concentrations (MICs) were defined as the lowest peptide concentration showing growth inhibition after 24 hours at 37° C. All tests were done in triplicate.
# [5] = tested on: S. aureus (ATCC 6538); format: cell-based; conditions: ATCC 6538, 24 h
# [6] = Haemolysis of human erythrocytes; format: cell-based; conditions: 10% (v/v) suspension, pH 7.2; 50% lysis of human erythrocytes, 1 hour, room temperature; read-out: LC50
# Procedure: (§2) Haemolysis was determined by incubating 10% (v/v) suspension of human erythrocytes with peptides. Erythrocytes were rinsed 4 times in 10 mM PBS, pH 7.2, by repeated centrifugation and re-suspension (3 min, 3000×g). Erythrocytes were incubated at room temperature for 1 hour in either deionised water (fully haemolysed control), PBS or with peptide in PBS. After centrifugation at 10 000 g for 5 min, the supernatant was separated from the pellet and the absorbance measured at 550 nm. Absorbance of the suspension treated with deionised water defined complete haemolysis. The values given in Table 2 correspond to concentrations needed to kill a half of the sample population (50% lysis of human erythrocytes) and are expressed as median lethal concentrations—LC50. All tests were done in triplicate.
# [7] = tested on: Human erythrocytes; experiment: Haemolysis of human erythrocytes; format: cell-based; conditions: in words
# Procedure: as §2
# [8] = tested on: M. luteus; format: cell-based; conditions: 24 h
# Procedure: as §1
# [9] = tested on: B. subtilis (ATCC 6633); format: cell-based; conditions: ATCC 6633, 24 h
# Procedure: as §1
# [10] = tested on: E. coli (K12); format: cell-based; conditions: K12, 24 h
# Procedure: as §1
Substance,cell adhesion and proliferation (total cells / total viable cells) [1],normalised impedance after second medium inoculation [2],resistance against bacterial adhesion / biofilm formation [3],MIC [4],MIC [5],CC50 at 1 hour [6],haemolytic activity [7],MIC [8],MIC [9],MIC [10]
"KIAALKQKIAALKYEIAALE-am (KIAALKQKIAALKYEIAALE-NH2) [D2, individual linear second domain, negative non-assembling peptide control]",only negligible cellular responses,,,,,,,,,
collagen,comparable values,a gradually ascending phase in impedance,did not resist biofilm formation,,,,,,,
cyclo(AALEGGGEIAALEQEIAALEYKIAALKGGGKIAALKQKIAALKQEI) [SaNet],,,,>100 µM,>100 µM,> 600 µM,negligible,<50 µM,50 µM,100 µM
fibronectin,comparable values,steady decays in resistance curves,did not resist biofilm formation,,,,,,,
